Twelve substances from patent US7803930B2, “Antisense modulation of apolipoprotein B-expression” (Isis Pharmaceuticals, Inc., priority 2002, dated 2010) can be followed below.

In the oligonucleotide strings, read from the 5' end, every base follows the letter of its sugar. An asterisk marks phosphorothioate; unmarked linkages are phosphodiester. Other units and linkages are bracketed, terminal groups are in braces. A string of capitals states the bases alone. e = 2'-O-(2-methoxyethyl) (MOE); [5mC] = 5-methylcytosine; d = 2'-deoxy (DNA)

In one data set the test system is apolipoprotein B protein. Briefly: Apolipoprotein B protein secreted from primary Cynomolgous monkey hepatocytes, ELISA. The class given is cell-based. The conditions noted are these: primary Cynomolgous hepatocytes. The procedure:
Apolipoprotein B protein secreted from primary Cynomolgous hepatocytes treated with 150 and 300 nM of oligonucleotide was measured by ELISA using an apolipoprotein B protein specific kit (ALerCHEK Inc., Portland, Me.). Each result represents the average of 3 experiments.
Apolipoprotein B protein secreted primary Cynomolgous hepatocytes treated with 50 and 150 nM of ISIS 315089 and ISIS 281625 was measured by ELISA using an apolipoprotein B protein specific kit (ALerCHEK Inc., Portland, Me.). Each result represents the average of 3 experiments.
Apolipoprotein B protein secreted from primary Cynomolgous hepatocytes treated with 50 and 150 nM of ISIS 271009 and ISIS 301027 was measured by ELISA using an apolipoprotein B protein specific kit (ALerCHEK Inc., Portland, Me.). Each result represents the average of 3 experiments.

Data set [1] has as its system Cynomolgous monkey apolipoprotein B mRNA. Briefly: Apolipoprotein B mRNA in primary Cynomolgous monkey hepatocytes, real-time PCR. It is filed as cell-based. The conditions noted are these: for % Inhibition of apolipoprotein B mRNA: primary Cynomolgous monkey hepatocytes, 24 hours (Table 46). As to the method: Antisense inhibition by ISIS 301012 was compared to that of ISIS 326358, which is a perfect match to the Cynomolgous monkey apolipoprotein B sequence to which ISIS 301012 hybridizes. The compounds were analyzed for their effect on Cynomolgous monkey apolipoprotein B mRNA levels in primary Cynomolgous monkey hepatocytes purchased from In Vitro Technologies ([…].). Pre-plated primary Cynonomolgous monkey hepatocytes were purchased from InVitro Technologies (Baltimore, Md.). Cells were cultured in high-glucose DMEM (Invitrogen Corporation, Carlsbad, Calif.) supplemented with 10% fetal bovine serum (Invitrogen Corporation, Carlsbad, Calif.), 100 units/mL and 100 μg/mL streptomycin (Invitrogen Corporation, Carlsbad, Calif.).
Primary Cynomolgous monkey hepatocytes were treated with 10, 50, 150 or 300 nM of antisense oligonucleotides for 48 hours. ISIS 113529 (SEQ ID NO: 859) was used as a control oligonucleotide. Untreated cells also served as a control. Cynomolgous monkey apolipoprotein B mRNA levels were quantitated by real-time PCR using the human apolipoprotein B and GAPDH primers and probes described by other examples herein. The results, shown in Table 44, are the average of 6 experiments and are expressed as percent inhibition of apolipoprotein B mRNA normalized to untreated control cells.
In a further embodiment of the invention, antisense inhibition by ISIS 281625 was compared to that by ISIS 315089, which is a perfect match to the Cynomolgous monkey apolipoprotein B sequence to which ISIS 281625 hybridizes. Primary Cynomolgous monkey hepatocytes, cultured as described herein, were treated with 10, 50, 150 or 300 nM of ISIS 315089 or ISIS 281625 for 24 hours. Cells were treated with the control oligonucleotide ISIS 13650 (SEQ ID NO: 806) at 150 and 300 nM or ISIS 113529 (SEQ ID NO: 859) at 300 nM. Untreated cells also served as a control. Cynomolgous monkey apolipoprotein B mRNA levels in primary Cynomolgous monkey hepatocytes was quantitated using real-time PCR with human primers and probe as described by other examples herein. The results, shown in Table 46, are the average of 3 experiments and are expressed as percent inhibition of apolipoprotein B mRNA normalized to untreated control cells.
ISIS 271009 (SEQ ID NO: 319) and ISIS 301027 (SEQ ID NO: 262) were also tested for their effects on apolipoprotein B mRNA and protein expression in Cynomolgous primary hepatoctyes. Cells, cultured as described herein, were treated with 10, 50 and 150 nM of ISIS 271009 or ISIS 301027 for 24 hours. Cells were treated with the control oligonucleotide ISIS 113529 (SEQ ID NO: 859) at 150 nM. Untreated cells also served as a control. Cynomolgous monkey apolipoprotein B mRNA levels in primary Cynomolgous monkey hepatocytes was quantitated using real-time PCR with human primers and probe as described by other examples herein. The results, shown in Table 48, are the average of 2 experiments and are expressed as percent inhibition of apolipoprotein B mRNA normalized to untreated control cells.

Data set [2] can be described thus: LDLr(-/-) mice dose response (Example 44): liver enzyme, cholesterol and triglyceride levels. The class given is in vivo, mouse. The conditions noted are these: 50 mg/kg i.p. twice a week, six weeks. As to the method: LDLr(−/−) mice, purchased from Taconic (Germantown, N.Y.) were used to evaluate antisense oligonucleotides for their potential to lower apolipoprotein B mRNA or protein levels, as well as phenotypic endpoints associated with apolipoprotein B. LDLr(−/−) mice were separated into groups of males and females. LDLr(−/−) mice were dosed intraperitoneally twice a week for six weeks with either 10, 25, or 50 mg/kg of ISIS 147764 (SEQ ID NO: 109) or ISIS 270906 (SEQ ID NO: 856) which is a 4 base mismatch of ISIS 147764, or with saline, or 20 mg/kg of Atorvastatin. At study termination animals were sacrificed and evaluated for several phenotypic markers.

Data set [3] deals with mouse apolipoprotein B mRNA. The data set is described as follows: Inhibition of mouse apolipoprotein B mRNA levels in primary mouse hepatocytes, real-time PCR. The conditions noted are these: Table 3, 150 nM, averages from two experiments. It is filed as cell-based. The procedure: Primary mouse hepatocytes were prepared from CD-1 mice purchased from Charles River Labs (Wilmington, Mass.) and were routinely cultured in Hepatoyte Attachment Media (Gibco) supplemented with 10% Fetal Bovine Serum (Gibco/Life Technologies, Gaithersburg, Md.), 250 nM dexamethasone (Sigma), and 10 nM bovine insulin (Sigma). Cells were seeded into 96-well plates (Falcon-Primaria #3872) at a density of 10000 cells/well for use in RT-PCR analysis.
When cells reached 80% confluency, they were treated with oligonucleotide. For cells grown in 96-well plates, wells were washed once with 200 μL OPTI-MEM™-1 reduced-serum medium (Gibco BRL) and then treated with 130 μL of OPTI-MEM™-1 containing 3.75 μg/mL LIPOFECTIN™ (Gibco BRL) and the desired concentration of oligonucleotide. After 4-7 hours of treatment, the medium was replaced with fresh medium. Cells were harvested 16-24 hours after oligonucleotide treatment.
Quantitation of apolipoprotein B mRNA levels was determined by real-time quantitative PCR using the ABI PRISM™ 7700 Sequence Detection System (PE-Applied Biosystems, Foster City, Calif.) according to manufacturer's instructions. This is a closed-tube, non-gel-based, fluorescence detection system which allows high-throughput quantitation of polymerase chain reaction (PCR) products in real-time. As opposed to standard PCR, in which amplification products are quantitated after the PCR is completed, products in real-time quantitative PCR are quantitated as they accumulate. This is accomplished by including in the PCR reaction an oligonucleotide probe that anneals specifically between the forward and reverse PCR primers, and contains two fluorescent dyes. A reporter dye (e.g., JOE, FAM, or VIC, obtained from either Operon Technologies Inc., Alameda, Calif. or PE-Applied Biosystems, Foster City, Calif.) is attached to the 5′ end of the probe and a quencher dye (e.g., TAMRA, obtained from either Operon Technologies Inc., Alameda, Calif. or PE-Applied Biosystems, Foster City, Calif.) is attached to the 3′ end of the probe. When the probe and dyes are intact, reporter dye emission is quenched by the proximity of the 3′ quencher dye. During amplification, annealing of the probe to the target sequence creates a substrate that can be cleaved by the 5′-exonuclease activity of Taq polymerase. […] With each cycle, additional reporter dye molecules are cleaved from their respective probes, and the fluorescence intensity is monitored at regular intervals by laser optics built into the ABI PRISM™ 7700 Sequence Detection System. In each assay, a series of parallel reactions containing serial dilutions of mRNA from untreated control samples generates a standard curve that is used to quantitate the percent inhibition after antisense oligonucleotide treatment of test samples.
Probes and primers to mouse apolipoprotein B were designed to hybridize to a mouse apolipoprotein B sequence, using published sequence information (GenBank accession number M35186, incorporated herein as SEQ ID NO: 10). For mouse apolipoprotein B the PCR primers were: forward primer: CGTGGGCTCCAGCATTCTA (SEQ ID NO: 11) reverse primer: […] (SEQ ID NO: 12) and the PCR probe was: FAM-[…]-TAMRA SEQ ID NO: 13) where FAM (PE-Applied Biosystems, Foster City, Calif.) is the fluorescent reporter dye) and TAMRA (PE-Applied Biosystems, Foster City, Calif.) is the quencher dye. For mouse GAPDH the PCR primers were: forward primer: […] (SEQ ID NO: 14) reverse primer: […] (SEQ ID NO:15) and the PCR probe was: 5′ JOE-[…]-TAMRA 3′ (SEQ ID NO: 16) where JOE (PE-Applied Biosystems, Foster City, Calif.) is the fluorescent reporter dye) and TAMRA (PE-Applied Biosystems, Foster City, Calif.) is the quencher dye.
In accordance with the present invention, a series of oligonucleotides was designed to target different regions of the mouse apolipoprotein B RNA, using published sequence (GenBank accession number M35186, incorporated herein as SEQ ID NO: 10). […]

For the substance “315089 (antisense eA*eG*eA*eT*eT*dA*d[5mC]*d[5mC]*dA*dG*d[5mC]*d[5mC]*dA*dT*dA*eT*eG*e[5mC]*eA*eG) [compound 315089]”, the “% Reduction of monkey apolipoprotein B protein secretion” value is 11% with apolipoprotein B protein (50 nM (Table 47)) and 25% with apolipoprotein B protein (150 nM (Table 47)). Further, the “% Inhibition of apolipoprotein B mRNA” value is reported as 70% in data set [1] (10 nM, "+" = expression increased); 83% in data set [1] (50 nM); 81% in data set [1] (150 nM, "+" = expression increased); 82% in data set [1] (300 nM).
“AGATTACCAGCCATATGCAG (gapmer: ten 2'-deoxy gap, five-nucleotide wings, wing chemistry not given here) [ISIS 315089]”: the “secretion of apolipoprotein B protein (ELISA)” value in the data set on apolipoprotein B protein (150 nM) is listed as “decrease”; in the data set with apolipoprotein B protein (50 and 150 nM (statement after Table 49)), “decrease”. Moreover, the “inhibition of apolipoprotein B mRNA expression” value in data set [1] (Cynomolgous monkey primary hepatocytes, 10, 50, 150 or 300 nM, 24 hours) was “in a dose-dependent manner”.
As to “270906 (antisense GTCCCTCAACATCTGAATGC; listed as DNA, chemistry not given here) [compound 270906]”, in data set [2] (female LDLr(-/-) mice), the “Lipoproteins CHOL” value is 564.6 mg/dL, the “Lipoproteins HDL” value came to 200.0 mg/dL, the “Lipoproteins LDL” value was determined as 310.0 mg/dL and the “Lipoproteins TRIG” value came to 240.4 mg/dL. For the same substance, in data set [2] (female LDLr(-/-) mice), the “Liver Enzymes ALT” value stood at 88.6 IU/L and the “Liver Enzymes AST” value stood at 96.0 IU/L. For the same substance, in data set [2] (male LDLr(-/-) mice), the “Lipoproteins CHOL” value is 941.0 mg/dL, the “Lipoproteins HDL” value was 244.2 mg/dL, the “Lipoproteins LDL” value was 541.9 mg/dL and the “Lipoproteins TRIG” value amounted to 844.8 mg/dL. In data set [2] (male LDLr(-/-) mice), the “Liver Enzymes ALT” value turned out to be 348.0 IU/L and the “Liver Enzymes AST” value is on record as 167.4 IU/L.
For “147481 (eT*eG*eA*e[5mC]*eT*dG*dT*d[5mC]*dA*dA*dG*dG*dG*dT*dG*eA*eG*e[5mC]*eT*eG; antisense) [compound 147481]”, the “% INHIB” value in data set [3] is reported as 24%.
Still for that read-out and setting: as for “147488 (eA*eG*e[5mC]*eT*eT*dG*d[5mC]*dT*dT*dG*dT*dT*dG*dG*dG*e[5mC]*eA*e[5mC]*eG*eG; antisense) [compound 147488]”, the figure is 72%; as for “147501 (e[5mC]*eT*eT*eG*eG*dT*dT*dA*dA*dA*d[5mC]*dT*dA*dA*dT*eG*eG*eT*eG*e[5mC]; antisense) [compound 147501]”, 18%.
On the same count and under the same terms, in the case of “147494 (eA*e[5mC]*eA*eA*e[5mC]*dT*dG*dG*dG*dA*dT*dA*dG*dT*dG*eT*eA*eG*e[5mC]*e[5mC]; antisense) [compound 147494]” it was 84%; in that of “147491 (eG*eA*eG*eA*eA*dA*dT*d[5mC]*d[5mC]*dT*dT*d[5mC]*dA*dG*dT*eA*eA*eG*eG*eG; antisense) [compound 147491]”, 71%.
Consider “147505 (eG*eG*eA*eA*eG*dT*dG*dA*dG*dA*d[5mC]*dT*dT*dT*d[5mC]*eT*eA*eA*eG*e[5mC]; antisense) [compound 147505]”, for which the “% INHIB” value in data set [3] came out at 76%.
On to “147766 (eG*eG*eA*eG*e[5mC]*d[5mC]*d[5mC]*dA*d[5mC]*dG*dT*dG*d[5mC]*dT*dG*eA*eG*eA*eT*eT; antisense) [compound 147766]”, for which the “% INHIB” value in data set [3] came out at 59%.
Still for that read-out and setting: in the case of “147771 (eG*eG*eT*eA*eA*dA*dG*dT*dT*dG*d[5mC]*d[5mC]*d[5mC]*dA*dT*eG*eG*e[5mC]*eT*eG; antisense) [compound 147771]” it was 68%; in that of “147759 (eA*eG*eG*eT*eG*dA*dG*dG*dA*dA*dG*dT*dT*dG*dG*eA*eA*eT*eT*e[5mC]; antisense) [compound 147759]”, 19%.
